The Ki is a dissociation constant, usually derived from enzyme kinetics or from competition with a known ligand.

Here are results for 19 molecules from patent publication US11053242B2, “[9,10-dimethoxy-3-(2-methylpropyl)-1H,2H,3H,4H,6H,7H,11BH-pyrido-[2,1-a]isoquinolin-2-yl]methanol and compounds, compositions and methods relating thereto” (Neurocrine Biosciences, Inc., priority 2015, dated 2021).

The target of data set [1] is VMAT2 (human platelet homogenate) (Homo sapiens (Human), UniProt Q05940). In words: Human VMAT2 Ki, slightly modified competition binding procedure (Table 11).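 Note: competition binding with 90 min incubation at 25 °C, after which filter-retained radioligand was measured by scintillation counting.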 The following applies: 10 nM 3H-dihydrotetrabenazine.
VMAT2 (human platelet homogenate), sequence (Q05940 whole entry): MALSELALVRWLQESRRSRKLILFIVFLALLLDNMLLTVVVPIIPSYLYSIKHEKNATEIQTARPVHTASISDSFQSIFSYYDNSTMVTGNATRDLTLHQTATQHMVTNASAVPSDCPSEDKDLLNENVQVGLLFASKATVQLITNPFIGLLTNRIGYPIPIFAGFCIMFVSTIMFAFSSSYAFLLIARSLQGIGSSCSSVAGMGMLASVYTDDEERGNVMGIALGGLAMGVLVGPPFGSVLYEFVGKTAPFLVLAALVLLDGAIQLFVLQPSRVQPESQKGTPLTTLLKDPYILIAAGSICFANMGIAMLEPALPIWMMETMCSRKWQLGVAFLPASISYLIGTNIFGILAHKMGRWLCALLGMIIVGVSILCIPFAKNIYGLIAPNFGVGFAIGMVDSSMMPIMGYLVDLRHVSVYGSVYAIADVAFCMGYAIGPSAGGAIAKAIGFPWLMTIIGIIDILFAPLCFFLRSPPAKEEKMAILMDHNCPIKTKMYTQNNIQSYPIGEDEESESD
Method: Following incubation at 25° C. for 90 minutes, bound radioligand was collected by rapid filtration onto GF/B glass fiber filters using a Unifilter-96 Harvester (PerkinElmer). Filter plates were pre-treated with 0.1% polyethylenimine and allowed to dry overnight, and following harvesting the filter plates were washed with 800 d VMAT2 binding buffer. Bound radioligand was quantified by scintillation counting using a Topcount NXT (PerkinElmer).
The nature of data set [2]: In vitro human intestinal S9 hydrolysis assay (formation of compound 1-1). The following applies: human intestinal S9, 1 uM, 37° C., up to 60 minutes.
Method: Compounds (1 uM) were incubated with pooled intestinal S9 subcellular preparations (0.5 mg/mL total protein) from SD rats and humans without the addition of protease inhibitor phenylmethylsulfonylflouride. Incubations were carried out in a potassium phosphate buffer (50 mM). All concentrations were relative to the final incubation volume of 125 uL. Incubations were conducted at 37° C. for 0, 5, 10, 20, 40 and 60 minutes in a water bath and terminated by rapid mixing with 150 uL of ice-cold acetonitrile containing 1% formic acid. Internal standard was added and proteins were precipitated and removed by centrifugation prior to LC/MS analysis.

`COc1cc2c(cc1OC)[C@H]1C[C@@H](COC(=O)CC3CCN(C)C3)[C@H](CC(C)C)CN1CC2` (stereo partly drawn) [Compound 2-10, [(2R,3S,11bR)-9,10-dimethoxy-3-(2-methylpropyl)-1H,2H,3H,4H,6H,7H,11bH-pyrido[2,1-a]isoquinolin-2-yl]methyl 2-(1-methylpyrrolidin-3-yl)acetate] had an inhibitory constant (Ki) in data set [1] of less than 10 nM. Also, the “S9 Assay (ability to form compound 1-1)” value in data set [2] is recorded as “+++”. On the same counts, the results for `COc1cc2c(cc1OC)[C@H]1C[C@@H](COC(=O)C3CCN(C)CC3)[C@H](CC(C)C)CN1CC2` [Compound 2-25, [(2R,3S,11bR)-9,10-dimethoxy-3-(2-methylpropyl)-1H,2H,3H,4H,6H,7H,11bH-pyrido[2,1-a]isoquinolin-2-yl]methyl 1-methylpiperidine-4-carboxylate] are less than 10 nM and “+++”. On the same counts, the results for `COc1cc2c(cc1OC)[C@H]1C[C@@H](COC(=O)CC(C)(C)CC(=O)O)[C@H](CC(C)C)CN1CC2` [Compound 3-1, 5-{[(2R,3S,11bR)-9,10-dimethoxy-3-(2-methylpropyl)-1H,2H,3H,4H,6H,7H,11bH-pyrido[2,1-a]isoquinolin-2-yl]methoxy}-3,3-dimethyl-5-oxopentanoic acid] are greater than 500 nM and “+”. In data set [1], `COc1cc2c(cc1OC)[C@H]1C[C@@H](COC(=O)CC(C)CC(=O)O)[C@H](CC(C)C)CN1CC2` (stereo partly drawn) [Compound 3-3, 5-{[(2R,3S,11bR)-9,10-dimethoxy-3-(2-methylpropyl)-1H,2H,3H,4H,6H,7H,11bH-pyrido[2,1-a]isoquinolin-2-yl]methoxy}-3-methyl-5-oxopentanoic acid] gave a Ki of 10 to 500 nM. Further, in data set [2], the “S9 Assay (ability to form compound 1-1)” value is “+++”. In data set [1], `COc1cc2c(cc1OC)[C@H]1C[C@@H](COC(=O)C3CC3C(=O)O)[C@H](CC(C)C)CN1CC2` (stereo partly drawn) [Compound 3-4, 2-({[(2R,3S,11bR)-9,10-dimethoxy-3-(2-methylpropyl)-1H,2H,3H,4H,6H,7H,11bH-pyrido[2,1-a]isoquinolin-2-yl]methoxy}carbonyl)cyclopropane-1-carboxylic acid] yielded a Ki of 10 to 500 nM. In data set [2], the “S9 Assay (ability to form compound 1-1)” value is recorded as “++”.

`COc1cc2c(cc1OC)[C@H]1C[C@@H](COC(=O)C3CCCCC3C(=O)O)[C@H](CC(C)C)CN1CC2` (stereo partly drawn) [Compound 3-6, 2-({[(2R,3S,11bR)-9,10-dimethoxy-3-(2-methylpropyl)-1H,2H,3H,4H,6H,7H,11bH-pyrido[2,1-a]isoquinolin-2-yl]methoxy}carbonyl)cyclohexane-1-carboxylic acid]: in data set [1], the Ki was in the range of 10 to 500 nM. For the same molecule, the “S9 Assay (ability to form compound 1-1)” value in data set [2] is listed as “++”. `COc1cc2c(cc1OC)[C@H]1CC(COC(=O)CC(C)(C)C(=O)O)[C@H](CC(C)C)CN1CC2` (stereo partly drawn) [Compound 3-7, 4-{[(3S,11bR)-9,10-dimethoxy-3-(2-methylpropyl)-1H,2H,3H,4H,6H,7H,11bH-pyrido[2,1-a]isoquinolin-2-yl]methoxy}-2,2-dimethyl-4-oxobutanoic acid]: the Ki in data set [1] fell in the range of 10 to 500 nM. The “S9 Assay (ability to form compound 1-1)” value in data set [2] is recorded as “+”.

Regarding `COc1cc2c(cc1OC)[C@H]1C[C@@H](COC(=O)CCCC(=O)O)[C@H](CC(C)C)CN1CC2` [Compound 3-8, 5-{[(2R,3S,11bR)-9,10-dimethoxy-3-(2-methylpropyl)-1H,2H,3H,4H,6H,7H,11 bH-pyrido[2,1 a]isoquinolin-2-yl]methoxy}-5-oxopentanoic acid], the Ki in data set [1] lay within 10 to 500 nM. The “S9 Assay (ability to form compound 1-1)” value in data set [2] is listed as “+++”.

Turning to `COc1cc2c(cc1OC)[C@H]1C[C@@H](COC(=O)N3CCNC[C@H]3C)[C@H](CC(C)C)CN1CC2` [Compound 6-3, [(2R,3S,11bR)-9,10-dimethoxy-3-(2-methylpropyl)-1H,2H,3H,4H,6H,7H,11bH-pyrido[2,1-a]isoquinolin-2-yl]methyl (2R)-2-methylpiperazine-1-carboxylate], the “S9 Assay (ability to form compound 1-1)” value in data set [2] is “+”. Consider `COc1cc2c(cc1OC)[C@H]1C[C@@H](COCC(=O)c3ccc(F)cc3)[C@H](CC(C)C)CN1CC2` [Compound 9-3, 2-{[(2R,3S,11bR)-9,l0-dimethoxy-3-(2-methylpropyl)-1H,2H,3H,4H,6H,7H,11bH-pyrido[2,1-a]isoquinolin-2-yl]methoxy}-1-(4-fluorophenyl)ethan-1-one], for which the Ki in data set [1] was greater than 500 nM.

For the molecule `COCOC[C@@H]1C[C@@H]2c3cc(OC)c(OC)cc3CCN2C[C@H]1CC(C)C` [Compound 9-5, (2R,3S,11bR)-9,10-dimethoxy-2-[(methoxymethoxy)methyl]-3-(2-methylpropyl)-1H,2H,3H,4H,6H,7H,11bH-pyrido[2,1-a]isoquinoline], the Ki in data set [1] is less than 10 nM. In data set [1], `CCOC[C@@H]1C[C@@H]2c3cc(OC)c(OC)cc3CCN2C[C@H]1CC(C)C` [Compound 9-8, (2R,3S,11bR)-2-(ethoxymethyl)-9,10-dimethoxy-3-(2-methylpropyl)-1H,2H,3H,4H,6H,7H,11bH-pyrido[2,1-a]isoquinoline] gave a Ki of less than 10 nM. The same measure, in the same setting: to `COc1cc2c(cc1OC)[C@H]1C[C@@H](COCCC3CCNCC3)[C@H](CC(C)C)CN1CC2` [Compound 10-1, 4-(2-{[(2R,3S,11bR)-9,10-dimethoxy-3-(2-methylpropyl)-1H,2H,3H,4H,6H,7H,11bH-pyrido[2,1-a]isoquinolin-2-yl]methoxy}ethyl)piperidine] belongs less than 10 nM; to `COc1cc2c(cc1OC)[C@H]1C[C@@H](COC[C@@H]3CCNC3)[C@H](CC(C)C)CN1CC2` [Compound 10-2, (3R)-3-({[(2R,3S,11bR)-9,10-dimethoxy-3-(2-methylpropyl)-1H,2H,3H,4H,6H,7H,11bH-pyrido[2,1-a]isoquinolin-2-yl]methoxy}methyl)pyrrolidine], less than 10 nM.

As for `CCCCCCOCC1CC2c3cc(OC)c(OC)cc3CCN2CC1CC(C)C` (stereo not drawn) [Compound 10-3, 2-[(hexyloxy)methyl]-9,10-dimethoxy-3-(2-methylpropyl)-1H,2H,3H,4H,6H,7H,11bH-pyrido[2,1-a]isoquinoline], the Ki in data set [1] was 10 to 500 nM. The molecule `COc1cc2c(cc1OC)[C@H]1C[C@@H](COC[C@@H]3CCCN3)[C@H](CC(C)C)CN1CC2` [Compound 10-4, (2S)-2-({[(2R,3S,11bR)-9,10-dimethoxy-3-(2-methylpropyl)-1H,2H,3H,4H,6H,7H,11bH-pyrido[2,1-a]isoquinolin-2-yl]methoxy}methyl)pyrrolidine] had a Ki in data set [1] of less than 10 nM. Regarding `COc1cc2c(cc1OC)[C@H]1C[C@@H](COCC3CCNCC3)[C@H](CC(C)C)CN1CC2` [Compound 10-5, 4-({[(2R,3S,11bR)-9,10-dimethoxy-3-(2-methylpropyl)-1H,2H,3H,4H,6H,7H,11bH-pyrido[2,1-a]isoquinolin-2-yl]methoxy}methyl)piperidine], in data set [1], the Ki was 10 to 500 nM. Regarding `COc1cc2c(cc1OC)[C@H]1C[C@@H](COCC3CCNC3)[C@H](CC(C)C)CN1CC2` (stereo partly drawn) [Compound 10-6, 3-({[(2R,3S,11bR)-9,10-dimethoxy-3-(2-methylpropyl)-1H,2H,3H,4H,6H,7H,11bH-pyrido[2,1-a]isoquinolin-2-yl]methoxy}methyl)pyrrolidine], in data set [1], the inhibition constant Ki is less than 10 nM. Still for that read-out and setting: next, `COc1cc2c(cc1OC)[C@H]1C[C@@H](COC[C@H]3CCCN3)[C@H](CC(C)C)CN1CC2` [Compound 10-7, (2R)-2-({[(2R,3S,11bR)-9,10-dimethoxy-3-(2-methylpropyl)-1H,2H,3H,4H,6H,7H,11bH-pyrido[2,1-a]isoquinolin-2-yl]methoxy}methyl)pyrrolidine]: less than 10 nM.
